{"source": "patent US11766420B2", "about": "(priority 2015, dated 2023)", "tested_on": "HEK293T cells", "conditions": "human"}
{"smiles": "COc1ncc(-c2ccc3nc(N)n(-c4ccc(N5CCOCC5)cc4)c3c2)cc1S(=O)(=O)Nc1ccccc1F", "note": "[A1, 5-(2-amino-1-(4-(4-morpholinyl)phenyl)-1H-benzimidazol-6-yl)-N-(2-fluorophenyl)-2-methoxy-3-pyridinesulfonamide]", "values": [{"measurement": "Concentration that killed most of the cells (MTT)", "result": "≥ 250", "unit": "nM"}]}
